From US6552196B2, “Quinolone carboxylic acid derivatives” (Dong Wha Pharmaceutical Industrial Co., Ltd., priority 1997, dated 2003)
≈ marks a conversion by molar mass, not a printed value.

Legend:
Format in all cases: cell-based
[1] = tested on: Staphylococcus aureus 293; test: In vitro antibacterial activity against resistant strains (MIC); conditions: resistant strain Staphylococcus aureus 293; 2-fold agar dilution; methicillin resistant strains 48 hours at 30° C.; read-out: minimum inhibitory concentration (MIC)
Experimental: (§1) 10^7 cfu/ml of bacteria were inoculated and cultured for 18 hours at 37° C. and then the antibacterial activities were measured. For the methicillin resistant strains the activities were measured after 48 hours of cultivation at 30° C. Hoechst Standard strains were used for the testings.

[2] = tested on: Staphylococcus aureus 690E; test: as above; conditions: resistant strain Staphylococcus aureus 690E; 2-fold agar dilution; methicillin resistant strains 48 hours at 30° C.; read-out: minimum inhibitory concentration (MIC)
Experimental: as §1

[3] = tested on: Staphylococcus epidermidis 291; test: as above; conditions: resistant strain Staphylococcus epidermidis 291; 2-fold agar dilution; methicillin resistant strains 48 hours at 30° C.; read-out: minimum inhibitory concentration (MIC)
Experimental: as §1

[4] = tested on: Staphylococcus epidermidis 178; test: as above; conditions: resistant strain Staphylococcus epidermidis 178; 2-fold agar dilution; methicillin resistant strains 48 hours at 30° C.; read-out: minimum inhibitory concentration (MIC)
Experimental: as §1

[5] = tested on: Staphylococcus aureus 121E; test: as above; conditions: resistant strain Staphylococcus aureus 121E; 2-fold agar dilution; methicillin resistant strains 48 hours at 30° C.; read-out: minimum inhibitory concentration (MIC)
Experimental: as §1

[6] = tested on: Staphylococcus aureus 694E; test: as above; conditions: resistant strain Staphylococcus aureus 694E; 2-fold agar dilution; methicillin resistant strains 48 hours at 30° C.; read-out: minimum inhibitory concentration (MIC)
Experimental: as §1

[7] = tested on: Staphylococcus aureus 693E; test: as above; conditions: resistant strain Staphylococcus aureus 693E; 2-fold agar dilution; methicillin resistant strains 48 hours at 30° C.; read-out: minimum inhibitory concentration (MIC)
Experimental: as §1

[8] = tested on: Staphylococcus aureus 303; test: as above; conditions: resistant strain Staphylococcus aureus 303; 2-fold agar dilution; methicillin resistant strains 48 hours at 30° C.; read-out: minimum inhibitory concentration (MIC)
Experimental: as §1

[9] = tested on: Staphylococcus aureus 179; test: as above; conditions: resistant strain Staphylococcus aureus 179; 2-fold agar dilution; methicillin resistant strains 48 hours at 30° C.; read-out: minimum inhibitory concentration (MIC)
Experimental: as §1

[10] = tested on: Staphylococcus aureus 241; test: as above; conditions: resistant strain Staphylococcus aureus 241; 2-fold agar dilution; methicillin resistant strains 48 hours at 30° C.; read-out: minimum inhibitory concentration (MIC)
Experimental: as §1

[11] = tested on: Staphylococcus aureus 8236; test: as above; conditions: resistant strain Staphylococcus aureus 8236; 2-fold agar dilution; methicillin resistant strains 48 hours at 30° C.; read-out: minimum inhibitory concentration (MIC)
Experimental: as §1

[12] = tested on: Staphylococcus aureus 701E; test: as above; conditions: resistant strain Staphylococcus aureus 701E; 2-fold agar dilution; methicillin resistant strains 48 hours at 30° C.; read-out: minimum inhibitory concentration (MIC)
Experimental: as §1

[13] = tested on: Staphylococcus aureus 256E; test: as above; conditions: resistant strain Staphylococcus aureus 256E; 2-fold agar dilution; methicillin resistant strains 48 hours at 30° C.; read-out: minimum inhibitory concentration (MIC)
Experimental: as §1

[14] = tested on: Staphylococcus aureus 695E; test: as above; conditions: resistant strain Staphylococcus aureus 695E; 2-fold agar dilution; methicillin resistant strains 48 hours at 30° C.; read-out: minimum inhibitory concentration (MIC)
Experimental: as §1

[15] = tested on: Staphylococcus aureus 88E; test: as above; conditions: resistant strain Staphylococcus aureus 88E; 2-fold agar dilution; methicillin resistant strains 48 hours at 30° C.; read-out: minimum inhibitory concentration (MIC)
Experimental: as §1

[16] = tested on: Staphylococcus aureus 208E; test: as above; conditions: resistant strain Staphylococcus aureus 208E; 2-fold agar dilution; methicillin resistant strains 48 hours at 30° C.; read-out: minimum inhibitory concentration (MIC)
Experimental: as §1

[17] = tested on: Staphylococcus aureus 692E; test: as above; conditions: resistant strain Staphylococcus aureus 692E; 2-fold agar dilution; methicillin resistant strains 48 hours at 30° C.; read-out: minimum inhibitory concentration (MIC)
Experimental: as §1

[18] = tested on: Staphylococcus aureus 697E; test: as above; conditions: resistant strain Staphylococcus aureus 697E; 2-fold agar dilution; methicillin resistant strains 48 hours at 30° C.; read-out: minimum inhibitory concentration (MIC)
Experimental: as §1

[19] = tested on: Staphylococcus aureus 703E; test: as above; conditions: resistant strain Staphylococcus aureus 703E; 2-fold agar dilution; methicillin resistant strains 48 hours at 30° C.; read-out: minimum inhibitory concentration (MIC)
Experimental: as §1

[20] = tested on: Pseudomonas aeruginosa 1592E; test: In vitro antibacterial activity (MIC), agar dilution; conditions: 2-fold agar dilution, Muller-Hinton agar, 18 hours at 37° C., read-out: minimum inhibitory concentration (MIC)
Experimental: as §1

[21] = tested on: Pseudomonas aeruginosa 1771; test: as above; conditions: 2-fold agar dilution, Muller-Hinton agar, 18 hours at 37° C., read-out: minimum inhibitory concentration (MIC)
Experimental: as §1

[22] = tested on: Staphylococcus aureus 285; test: as above; conditions: 2-fold agar dilution, Muller-Hinton agar, 18 hours at 37° C., read-out: minimum inhibitory concentration (MIC)
Experimental: as §1

[23] = tested on: Klebsiella aerogenes 1522E; test: as above; conditions: 2-fold agar dilution, Muller-Hinton agar, 18 hours at 37° C., read-out: minimum inhibitory concentration (MIC)
Experimental: as §1

Esherichia coli DC2 = test: as above; conditions: 2-fold agar dilution, Muller-Hinton agar, 18 hours at 37° C., read-out: minimum inhibitory concentration (MIC)
Experimental: as §1

[24] = tested on: Streptococcus pyogens 77A; test: as above; conditions: 2-fold agar dilution, Muller-Hinton agar, 18 hours at 37° C., read-out: minimum inhibitory concentration (MIC)
Experimental: as §1

Esherichia coli TEM = test: as above; conditions: 2-fold agar dilution, Muller-Hinton agar, 18 hours at 37° C., read-out: minimum inhibitory concentration (MIC)
Experimental: as §1

[25] = tested on: Pseudomonas aeruginosa 1771M; test: as above; conditions: Pseudomonas aeruginosa, 1771M, 18 h, read-out: minimum inhibitory concentration (MIC)
Experimental: as §1

[26] = tested on: Staphylococcus aureus 503; test: as above; conditions: 2-fold agar dilution, Muller-Hinton agar, 18 hours at 37° C., read-out: minimum inhibitory concentration (MIC)
Experimental: as §1

Esherichia coli 078 = test: as above; conditions: 2-fold agar dilution, Muller-Hinton agar, 18 hours at 37° C., read-out: minimum inhibitory concentration (MIC)
Experimental: as §1

Esherichia coli 1507E = test: as above; conditions: 2-fold agar dilution, Muller-Hinton agar, 18 hours at 37° C., read-out: minimum inhibitory concentration (MIC)
Experimental: as §1

[27] = tested on: Staphylococcus aureus SG511; test: as above; conditions: 2-fold agar dilution, Muller-Hinton agar, 18 hours at 37° C., read-out: minimum inhibitory concentration (MIC)
Experimental: as §1

Salmonella typhimurium = test: as above; conditions: Salmonella enterica, 2-fold agar dilution, Muller-Hinton agar, 18 hours at 37° C., read-out: minimum inhibitory concentration (MIC)
Experimental: as §1

Klebsiella oxytoca 1082E = test: as above; conditions: 2-fold agar dilution, Muller-Hinton agar, 18 hours at 37° C., read-out: minimum inhibitory concentration (MIC)
Experimental: as §1

[28] = tested on: Streptococcus faecium MD 8b; test: as above; conditions: Enterococcus faecium, MD8B, 2-fold agar dilution, Muller-Hinton agar, 18 hours at 37° C., read-out: minimum inhibitory concentration (MIC)
Experimental: as §1

Esherichia coli DC0 = test: as above; conditions: 2-fold agar dilution, Muller-Hinton agar, 18 hours at 37° C., read-out: minimum inhibitory concentration (MIC)
Experimental: as §1

[29] = tested on: Streptococcus pyogens 308A; test: as above; conditions: 2-fold agar dilution, Muller-Hinton agar, 18 hours at 37° C., read-out: minimum inhibitory concentration (MIC)
Experimental: as §1

[30] = tested on: Pseudomonas aeruginosa 9027; test: as above; conditions: 2-fold agar dilution, Muller-Hinton agar, 18 hours at 37° C., read-out: minimum inhibitory concentration (MIC)
Experimental: as §1

## O=C(O)c1cn(C2CC2)c2cc(N3CCNCC3)c(F)cc2c1=O [Ciprofloxacin, ciprofloxacin, reference compound]
[1]
  MIC: 12.5 µg/mL (≈ 37.7 µM)
[2]
  MIC: 0.391 µg/mL (≈ 1.18 µM)
[3]
  MIC: 50 µg/mL (≈ 151 µM)
[4]
  MIC: 50 µg/mL (≈ 151 µM)
[5]
  MIC: 0.781 µg/mL (≈ 2.36 µM)
[6]
  MIC: 0.391 µg/mL (≈ 1.18 µM)
[7]
  MIC: 0.391 µg/mL (≈ 1.18 µM)
[8]
  MIC: 12.5 µg/mL (≈ 37.7 µM)
[9]
  MIC: 12.5 µg/mL (≈ 37.7 µM)
[10]
  MIC: 12.5 µg/mL (≈ 37.7 µM)
[11]
  MIC: 12.5 µg/mL (≈ 37.7 µM)
[12]
  MIC: 0.391 µg/mL (≈ 1.18 µM)
[13]
  MIC: 0.781 µg/mL (≈ 2.36 µM)
[14]
  MIC: 0.391 µg/mL (≈ 1.18 µM)
[15]
  MIC: 0.781 µg/mL (≈ 2.36 µM)
[16]
  MIC: 0.781 µg/mL (≈ 2.36 µM)
[17]
  MIC: 0.391 µg/mL (≈ 1.18 µM)
[18]
  MIC: 0.391 µg/mL (≈ 1.18 µM)
[19]
  MIC: 0.391 µg/mL (≈ 1.18 µM)
[20]
  MIC: 0.195 µg/mL (≈ 0.589 µM)
[21]
  MIC: 0.195 µg/mL (≈ 0.589 µM)
[22]
  MIC: 0.781 µg/mL (≈ 2.36 µM)
[23]
  MIC: 0.013 µg/mL (≈ 0.0392 µM)
Esherichia coli DC2
  MIC: 0.049 µg/mL (≈ 0.148 µM)
[24]
  MIC: 0.781 µg/mL (≈ 2.36 µM)
Esherichia coli TEM
  MIC: 0.007 µg/mL (≈ 0.0211 µM)
[25]
  MIC: 0.049 µg/mL (≈ 0.148 µM)
[26]
  MIC: 0.391 µg/mL (≈ 1.18 µM)
Esherichia coli 078
  MIC: 0.004 µg/mL (≈ 0.0121 µM)
Esherichia coli 1507E
  MIC: 0.007 µg/mL (≈ 0.0211 µM)
[27]
  MIC: 0.195 µg/mL (≈ 0.589 µM)
Salmonella typhimurium
  MIC: 0.007 µg/mL (≈ 0.0211 µM)
Klebsiella oxytoca 1082E
  MIC: < 0.002 µg/mL
[28]
  MIC: 0.391 µg/mL (≈ 1.18 µM)
Esherichia coli DC0
  MIC: 0.195 µg/mL (≈ 0.589 µM)
[29]
  MIC: 3.12 µg/mL (≈ 9.43 µM)
[30]
  MIC: 0.195 µg/mL (≈ 0.589 µM)
